Data from publication PMC9481570, “A small molecule antagonist of SMN disrupts the interaction between SMN and RNAP II” (Nature Communications, 2022).
“And” between values parts separate entries of the source, which are not always exact repeats. Identical values can stand only once.

Experiments:
Assay in all cases: Affinity-purification and mass spectrometry (AP-MS) chemical proteomics, all proteins;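 for Difference: 200 µM free competitor with 20 µM biotin probe overnight in lysate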
Assay type in all cases: binding
[1] = target: T1, proteins displaced from immobilized biotin-Cmpd 1 pulldowns (U2OS cell lysate) (Homo sapiens, UniProt O14979); settings: GN=HNRNPDL (A0A087WU03)
T1 construct: endogenous in cells; host or cells: U2OS
Experimental: (§1) The samples for AP-MS were prepared following pulldown procedure as previously described with minor modifications. Briefly, U2OS cells were lysed in RIPA buffer and the cell lysate was equally divided into two groups: (1) DMSO group (control group): the cell lysate was incubated with 20 μM biotin-labeled compound 1; (2) Cpmd 1 group (sample group): the cell lysate was incubated with 20 μM biotin-labeled compound 1 and 200 μM free compound 1. Each group contains three biological replicates. They were incubated overnight at 4 °C, then 30 μL streptavidin beads (Thermo Fisher, 20353) was added and incubated at 4 °C for 1 h. The beads were then washed with RIPA buffer for 3 times, 10 min/time.
(§2) Beads were rinsed twice with 50 mM TEAB, pH 7.55, before eluting proteins with 25 μL of 5% SDS, 50 mM TEAB, pH 7.55. The sample was then centrifuged at 17,000 × g for 10 min to remove any debris. Proteins were reduced with 20 mM TCEP (Thermo Fisher, 77720) and incubated at 65 °C for 30 min. The sample was cooled to room temperature and 1 μL of 0.5 M iodoacetamide acid was added and allowed to react for 20 min in dark. Phosphoric acid (12%, 2.75 μL) was added to the protein solution, followed by adding 165 μL of binding buffer (90% methanol, 100 mM TEAB, pH 7.1). The resulting solution was added to S-Trap spin column (protifi.com) and passed through the column using a bench top centrifuge (30 s spin at 4000 × g). The spin column was washed with 400 μL of binding buffer and centrifuged. This step was repeated two more times. Then trypsin was added to the protein mixture at a mass ratio of 1:25 in 50 mM TEAB, pH 8.0, and the sample was incubated at 37 °C for 4 h. Peptides were eluted with 80 μL of 50 mM TEAB, followed by 80 μL of 0.2% formic acid, and finally 80 μL of 50% acetonitrile, 0.2% formic acid. The combined peptide solution was then dried in a speed vac and resuspended in 2% acetonitrile, 0.1% formic acid, 97.9% water and placed in an autosampler vial.
(§3) Samples were analyzed by nanoLC-MS/MS (nanoRSLC, Thermo Fisher) using an Aurora series (Ion Opticks) reversed phase HPLC column (25 cm length × 75 µm inner diameter) and directly injected to an Orbitrap Eclipse (Thermo Fisher) using a 120 min gradient (mobile phase A = 0.1% formic acid, mobile phase B = 99.9% acetonitrile with 0.1% formic acid; hold 2% B for 5 min, 2–6% B in 0.1 min, 6–25% in 100 min, 25–50% in 15 min) at a flow rate of 350 nL/min. Eluted peptide ions were analyzed using a data-dependent acquisition (DDA) method with resolution settings of 120,000 and 15,000 (at m/z 200) for MS1 and MS2 scans, respectively. DDA-selected peptides were fragmented using stepped high energy collisional dissociation (27, 32, and 37%).
(§4) The data of AP-MS were analyzed as a previously described method with minor modifications. Briefly, the raw MS files were searched with MaxQuant software (version 1.6.1.1, www.maxquant.org)[56] against the UniProt human protein database (www.uniprot.org) concatenated with common contaminants and the decoy database. The mass tolerance for precursor ions was set to 20 ppm and 4.5 ppm for the first and main search, respectively. The cysteine carbamidomethylation was set as fixed modification and methionine oxidation and N-terminal acetylation as variable modifications. Enzyme specificity was set to trypsin and a maximum missed cleavage was set as 2. The 1% false discovery rate (FDR) at both peptide and protein levels was applied for the analysis. Relative protein quantification was based on the label-free quantification incorporated in the MaxQuant software. The iBAQ intensity of proteins was obtained for the control and experimental samples. The missing iBAQ intensity was replaced by a random number, which was calculated from a normal distribution with a width of 0.3 and a downshift of 1.8 defined by Perseus software (version 1.6.5.0). The P-value was calculated by performing two-sample Student’s t-test. […]

[2] = target: T2, proteins displaced from immobilized biotin-Cmpd 1 pulldowns (U2OS cell lysate) (Homo sapiens, UniProt O75616); settings: GN=ERAL1 (O75616)
T2 construct: endogenous in cells; host or cells: U2OS
Experimental: as §1, §2, §3, §4

[3] = target: T3, proteins displaced from immobilized biotin-Cmpd 1 pulldowns (U2OS cell lysate) (Homo sapiens, UniProt P10599); settings: GN=TXN (P10599)
T3 construct: endogenous in cells; host or cells: U2OS
Experimental: as §1, §2, §3, §4

[4] = target: T4, proteins displaced from immobilized biotin-Cmpd 1 pulldowns (U2OS cell lysate) (Homo sapiens, UniProt P20700); settings: GN=LMNB1 (P20700)
T4 construct: endogenous in cells; host or cells: U2OS
Experimental: as §1, §2, §3, §4

[5] = target: T5, proteins displaced from immobilized biotin-Cmpd 1 pulldowns (U2OS cell lysate) (Homo sapiens, UniProt P25311); settings: GN=AZGP1 (P25311)
T5 construct: endogenous in cells; host or cells: U2OS
Experimental: as §1, §2, §3, §4

[6] = target: T6, proteins displaced from immobilized biotin-Cmpd 1 pulldowns (U2OS cell lysate) (Homo sapiens, UniProt P42357); settings: GN=HAL (P42357)
T6 construct: endogenous in cells; host or cells: U2OS
Experimental: as §1, §2, §3, §4

[7] = target: T7, proteins displaced from immobilized biotin-Cmpd 1 pulldowns (U2OS cell lysate) (Homo sapiens, UniProt P57678); settings: GN=GEMIN4 (P57678)
T7 construct: endogenous in cells; host or cells: U2OS
Experimental: as §1, §2, §3, §4

[8] = target: T8, proteins displaced from immobilized biotin-Cmpd 1 pulldowns (U2OS cell lysate) (Homo sapiens, UniProt Q12873); settings: GN=CHD3 (Q12873)
T8 construct: endogenous in cells; host or cells: U2OS
Experimental: as §1, §2, §3, §4

[9] = target: T9, proteins displaced from immobilized biotin-Cmpd 1 pulldowns (U2OS cell lysate) (Homo sapiens, UniProt Q96AG4); settings: GN=LRRC59 (Q96AG4)
T9 construct: endogenous in cells; host or cells: U2OS
Experimental: as §1, §2, §3, §4

[10] = target: T10, proteins displaced from immobilized biotin-Cmpd 1 pulldowns (U2OS cell lysate) (Homo sapiens, UniProt Q9BVJ6); settings: GN=UTP14A (Q9BVJ6)
T10 construct: endogenous in cells; host or cells: U2OS
Experimental: as §1, §2, §3, §4

T2 sequence (O75616 44-437): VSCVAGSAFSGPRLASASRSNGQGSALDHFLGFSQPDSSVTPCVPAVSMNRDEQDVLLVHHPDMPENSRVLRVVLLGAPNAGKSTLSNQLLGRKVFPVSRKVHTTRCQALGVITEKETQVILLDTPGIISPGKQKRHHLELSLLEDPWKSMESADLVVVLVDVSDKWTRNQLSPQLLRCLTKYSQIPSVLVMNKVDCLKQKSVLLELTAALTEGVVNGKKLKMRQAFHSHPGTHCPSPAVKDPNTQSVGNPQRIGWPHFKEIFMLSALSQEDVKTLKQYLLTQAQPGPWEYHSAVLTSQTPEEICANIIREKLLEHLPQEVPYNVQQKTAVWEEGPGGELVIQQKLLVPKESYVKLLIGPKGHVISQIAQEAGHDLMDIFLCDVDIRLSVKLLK
T5 sequence (P25311 21-298): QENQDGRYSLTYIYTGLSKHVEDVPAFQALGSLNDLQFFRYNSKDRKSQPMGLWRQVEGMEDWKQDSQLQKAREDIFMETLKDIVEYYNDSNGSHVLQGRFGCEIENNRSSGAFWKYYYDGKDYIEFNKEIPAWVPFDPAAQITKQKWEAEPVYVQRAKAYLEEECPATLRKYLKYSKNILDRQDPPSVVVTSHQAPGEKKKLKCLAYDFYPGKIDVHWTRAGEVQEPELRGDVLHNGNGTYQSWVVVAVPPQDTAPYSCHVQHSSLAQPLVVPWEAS
T1 sequence (O14979 whole entry): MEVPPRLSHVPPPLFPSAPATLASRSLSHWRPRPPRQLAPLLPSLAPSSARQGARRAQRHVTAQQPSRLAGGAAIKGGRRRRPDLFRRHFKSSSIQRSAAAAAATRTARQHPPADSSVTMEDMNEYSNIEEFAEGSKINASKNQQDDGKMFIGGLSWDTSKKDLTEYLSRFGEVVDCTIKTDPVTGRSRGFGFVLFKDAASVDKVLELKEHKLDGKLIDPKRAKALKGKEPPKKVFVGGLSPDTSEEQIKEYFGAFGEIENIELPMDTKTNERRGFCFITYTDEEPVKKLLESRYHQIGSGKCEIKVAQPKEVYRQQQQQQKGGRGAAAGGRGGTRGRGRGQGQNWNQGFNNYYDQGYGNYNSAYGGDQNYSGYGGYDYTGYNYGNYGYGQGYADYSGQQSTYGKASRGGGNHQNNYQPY
T9 sequence (Q96AG4 whole entry): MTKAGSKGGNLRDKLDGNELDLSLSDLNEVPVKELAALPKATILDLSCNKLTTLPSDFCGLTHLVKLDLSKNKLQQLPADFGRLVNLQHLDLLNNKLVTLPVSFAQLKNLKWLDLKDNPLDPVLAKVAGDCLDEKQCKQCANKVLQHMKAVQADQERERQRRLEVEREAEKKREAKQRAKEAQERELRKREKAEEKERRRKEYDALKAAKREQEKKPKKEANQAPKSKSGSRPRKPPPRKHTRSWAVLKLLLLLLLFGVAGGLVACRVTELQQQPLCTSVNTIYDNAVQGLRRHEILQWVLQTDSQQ
T6 sequence (P42357 whole entry): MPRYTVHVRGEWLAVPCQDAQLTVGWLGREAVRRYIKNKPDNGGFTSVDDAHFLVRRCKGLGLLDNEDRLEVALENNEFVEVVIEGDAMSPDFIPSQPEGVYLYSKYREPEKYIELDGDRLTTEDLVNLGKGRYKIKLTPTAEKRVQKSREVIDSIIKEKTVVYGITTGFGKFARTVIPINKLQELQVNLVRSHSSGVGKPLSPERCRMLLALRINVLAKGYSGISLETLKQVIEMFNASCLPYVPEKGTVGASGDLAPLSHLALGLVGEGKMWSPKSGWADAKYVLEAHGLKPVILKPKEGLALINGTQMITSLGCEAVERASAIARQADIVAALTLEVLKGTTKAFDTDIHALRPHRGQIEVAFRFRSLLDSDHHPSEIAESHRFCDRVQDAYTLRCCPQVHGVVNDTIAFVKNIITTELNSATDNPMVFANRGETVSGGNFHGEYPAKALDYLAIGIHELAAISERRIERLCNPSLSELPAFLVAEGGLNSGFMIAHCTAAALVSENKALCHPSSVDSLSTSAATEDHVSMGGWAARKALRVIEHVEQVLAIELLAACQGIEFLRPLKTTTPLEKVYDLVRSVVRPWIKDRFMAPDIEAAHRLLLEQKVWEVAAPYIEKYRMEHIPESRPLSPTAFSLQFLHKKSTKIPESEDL
T10 sequence (Q9BVJ6 whole entry): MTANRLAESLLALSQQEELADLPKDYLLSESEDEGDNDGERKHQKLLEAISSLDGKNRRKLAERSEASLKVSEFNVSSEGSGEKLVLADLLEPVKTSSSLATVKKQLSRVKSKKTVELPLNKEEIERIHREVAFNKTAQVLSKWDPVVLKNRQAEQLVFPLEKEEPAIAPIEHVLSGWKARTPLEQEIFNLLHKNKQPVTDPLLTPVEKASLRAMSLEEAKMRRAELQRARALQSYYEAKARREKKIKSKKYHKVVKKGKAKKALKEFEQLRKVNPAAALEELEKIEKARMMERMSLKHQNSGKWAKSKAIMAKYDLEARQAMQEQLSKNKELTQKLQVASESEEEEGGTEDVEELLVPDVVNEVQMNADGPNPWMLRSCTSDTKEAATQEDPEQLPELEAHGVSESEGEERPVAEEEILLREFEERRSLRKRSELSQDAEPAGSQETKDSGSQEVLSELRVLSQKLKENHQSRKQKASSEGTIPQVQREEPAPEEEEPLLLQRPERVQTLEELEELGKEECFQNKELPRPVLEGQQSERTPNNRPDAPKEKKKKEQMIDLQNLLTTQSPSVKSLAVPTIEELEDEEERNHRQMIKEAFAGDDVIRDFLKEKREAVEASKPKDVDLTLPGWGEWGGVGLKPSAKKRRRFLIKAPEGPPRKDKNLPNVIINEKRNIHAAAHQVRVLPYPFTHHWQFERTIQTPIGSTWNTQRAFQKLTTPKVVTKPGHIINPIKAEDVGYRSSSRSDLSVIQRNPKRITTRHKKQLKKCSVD
T3 sequence (P10599 whole entry): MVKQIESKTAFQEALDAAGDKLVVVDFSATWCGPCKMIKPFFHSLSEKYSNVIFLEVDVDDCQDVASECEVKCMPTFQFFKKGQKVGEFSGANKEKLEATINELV
T8 sequence (Q12873 whole entry): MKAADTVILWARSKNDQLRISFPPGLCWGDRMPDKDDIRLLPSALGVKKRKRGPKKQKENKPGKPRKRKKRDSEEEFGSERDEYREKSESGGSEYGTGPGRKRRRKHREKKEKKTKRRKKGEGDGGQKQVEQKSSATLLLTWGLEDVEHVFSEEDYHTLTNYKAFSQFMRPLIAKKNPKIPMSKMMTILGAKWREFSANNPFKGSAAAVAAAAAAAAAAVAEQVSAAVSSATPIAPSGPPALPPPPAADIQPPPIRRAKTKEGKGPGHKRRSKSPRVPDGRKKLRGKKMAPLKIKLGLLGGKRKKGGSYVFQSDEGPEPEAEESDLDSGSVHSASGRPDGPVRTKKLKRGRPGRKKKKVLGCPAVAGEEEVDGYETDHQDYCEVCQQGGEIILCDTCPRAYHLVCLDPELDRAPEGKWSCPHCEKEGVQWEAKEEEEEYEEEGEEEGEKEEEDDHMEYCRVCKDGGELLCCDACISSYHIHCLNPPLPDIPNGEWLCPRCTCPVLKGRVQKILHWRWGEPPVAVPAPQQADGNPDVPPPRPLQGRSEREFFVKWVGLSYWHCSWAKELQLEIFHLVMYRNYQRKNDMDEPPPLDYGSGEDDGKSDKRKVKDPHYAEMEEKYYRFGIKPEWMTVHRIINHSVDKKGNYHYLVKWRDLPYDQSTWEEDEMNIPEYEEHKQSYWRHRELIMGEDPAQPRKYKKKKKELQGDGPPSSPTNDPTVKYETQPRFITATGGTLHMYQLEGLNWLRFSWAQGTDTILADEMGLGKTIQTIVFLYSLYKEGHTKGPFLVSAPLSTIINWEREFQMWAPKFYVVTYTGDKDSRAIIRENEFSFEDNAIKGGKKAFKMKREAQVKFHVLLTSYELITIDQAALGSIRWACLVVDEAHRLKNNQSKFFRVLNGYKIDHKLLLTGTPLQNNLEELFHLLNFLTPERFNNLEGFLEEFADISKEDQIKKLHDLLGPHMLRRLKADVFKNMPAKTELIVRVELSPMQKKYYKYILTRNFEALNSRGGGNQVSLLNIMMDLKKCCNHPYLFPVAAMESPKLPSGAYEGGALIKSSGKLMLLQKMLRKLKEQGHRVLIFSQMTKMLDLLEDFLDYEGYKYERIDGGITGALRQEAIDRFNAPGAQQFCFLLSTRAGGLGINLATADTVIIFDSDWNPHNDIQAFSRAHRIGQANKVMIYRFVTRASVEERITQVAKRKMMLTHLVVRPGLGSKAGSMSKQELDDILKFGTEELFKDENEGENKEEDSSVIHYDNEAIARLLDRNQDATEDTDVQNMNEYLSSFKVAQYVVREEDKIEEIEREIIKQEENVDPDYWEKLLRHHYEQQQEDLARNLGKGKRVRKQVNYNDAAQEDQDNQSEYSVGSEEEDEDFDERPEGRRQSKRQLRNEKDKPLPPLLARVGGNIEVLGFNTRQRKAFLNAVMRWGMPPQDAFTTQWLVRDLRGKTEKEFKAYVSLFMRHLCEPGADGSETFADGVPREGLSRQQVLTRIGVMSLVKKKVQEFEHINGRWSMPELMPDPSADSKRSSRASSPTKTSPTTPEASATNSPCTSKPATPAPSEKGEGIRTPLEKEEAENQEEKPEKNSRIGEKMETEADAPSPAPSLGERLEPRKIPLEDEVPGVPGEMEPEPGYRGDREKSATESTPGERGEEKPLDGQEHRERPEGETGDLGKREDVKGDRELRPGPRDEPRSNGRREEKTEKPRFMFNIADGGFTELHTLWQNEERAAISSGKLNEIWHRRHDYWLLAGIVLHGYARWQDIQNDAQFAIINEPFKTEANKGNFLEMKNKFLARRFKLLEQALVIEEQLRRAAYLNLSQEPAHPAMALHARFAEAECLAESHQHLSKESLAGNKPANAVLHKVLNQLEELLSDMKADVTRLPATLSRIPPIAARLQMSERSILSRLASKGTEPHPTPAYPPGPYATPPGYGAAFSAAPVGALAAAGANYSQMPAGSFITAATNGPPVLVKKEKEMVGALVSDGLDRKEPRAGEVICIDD

Compound: Cn1c2c(c(=N)c3c1CCC3)CCC2 [Compound 1, 4-methyl-2,3,4,5,6,7-hexahydrodicyclopenta[b,e]pyridin-8(1H)-imine]
- Difference ([1]; Cmpd minus DMSO, -LOG(P-value) 0.798528): 1.553
- iBAQ Cmpd ([1]; replicates 1-3): 20.8595 and 22.7108 and 22.2667
- Difference ([2]; Cmpd minus DMSO, -LOG(P-value) 0.929321): 2.334
- iBAQ Cmpd ([2]; replicates 1-3): 17.6381 and 15.7018 and 17.9385
- Difference ([3]; Cmpd minus DMSO, -LOG(P-value) 1.02279): -1.031
- iBAQ Cmpd ([3]; replicates 1-3): 20.7578 and 20.8108 and 19.926
- Difference ([4]; Cmpd minus DMSO, -LOG(P-value) 0.765149): 0.6571
- iBAQ Cmpd ([4]; replicates 1-3): 20.5307 and 20.0559 and 19.5746
- Difference ([5]; Cmpd minus DMSO, -LOG(P-value) 0.92202): -1.239
- iBAQ Cmpd ([5]; replicates 1-3): 21.041 and 21.3151 and 19.6243
- Difference ([6]; Cmpd minus DMSO, -LOG(P-value) 1.13561): -1.443
- iBAQ Cmpd ([6]; replicates 1-3): 15.8179 and 16.0542 and 14.8398
- Difference ([7]; Cmpd minus DMSO, -LOG(P-value) 1.57311): -2.921
- iBAQ Cmpd ([7]; replicates 1-3): 14.9119 and 15.2101 and 14.5309
- Difference ([8]; Cmpd minus DMSO, -LOG(P-value) 0.756951): -1.815
- iBAQ Cmpd ([8]; replicates 1-3): 14.8034 and 14.2721 and 13.9438
- Difference ([9]; Cmpd minus DMSO, -LOG(P-value) 0.840063): -2.23
- iBAQ Cmpd ([9]; replicates 1-3): 17.7382 and 14.7804 and 13.8761
- Difference ([10]; Cmpd minus DMSO, -LOG(P-value) 0.846922): 1.578
- iBAQ Cmpd ([10]; replicates 1-3): 17.3529 and 17.1229 and 16.9849
